The subject of assay [1] is axenic Leishmania tarentolae amastigotes (axLtA). The experiment in a line: MTT viability assay in axenic Leishmania tarentolae amastigotes. Type of assay: cell-based. As for the experimental part:
An aliquot of the original LtP culture broth that was equivalent to 108 × 10^6 cells was centrifuged at 2000× g for 10 min (Sorvall RC26 Plus, rotor: SH-3000, Thermo Fisher Scientific, Waltham, MA, USA). The resulting supernatant was discarded, and the cell pellet was resuspended in 10 mL of Schneider’s medium (adjusted to a pH of 4.5 using HCl; containing 50% FCS, 25,000 U/L penicillin, and 25 mg/L streptomycin). The cell suspension was transferred and cultured in a 50 mL TubeSpin bioreactor at 32 °C. Every 3–4 days, the cells were passaged. Therefore, the cell broth was centrifuged at 2000× g for 10 min, and the supernatant was discarded. The cells were resuspended in fresh medium. During the first 14 days, after the culture was started, the cells transformed from the promastigote to the axenic amastigote state (axLtA). Subsequent to this initial period, the axenic amastigotes were passaged every 3–4 days. To determine cell density of the broth, an aliquot of the suspension, usually 1 mL, was transferred into an Eppendorf tube. The cells were then diluted 1:2 up to 1:40 using PBS, depending on the cell density of the broth. An aliquot of 20 µL of this dilution was further diluted 1:2 with a 2% formaldehyde solution (in PBS). Of this final suspension, 10 µL were transferred to each counting chamber of a standard Neubauer chamber (VWR, Wien, Austria). The cells were incubated for 5 min at 25 °C to let them sediment. Photographs of the counting chambers were taken using a light microscope (Lacerta LIS-5 microscope, Lacerta GmbH, Vienna, Austria) with an attached camera. The photos were obtained at a magnification of 100×. Four photos of every counting chamber were taken, resulting in a total of eight photos. The pictures were then analyzed with the Fiji ImageJ (2.0.0) software (Wayne Rasband, National Institutes of Health (NIH), Bethesda, Maryland (MD), USA). The results were averaged giving the final cell number of the culture broth.
Owing to the acidic conditions needed for axLtA (pH 4.5), viability assays with axLtA were carried out using MTT instead of resazurin that is unstable in an acidic environment. Cell suspensions (200 µL) of axLtA (6 × 10^6 parasites/mL) in Schneider’s medium (pH = 4.5), containing 25,000 U/L penicillin, 25 mg/L streptomycin, and 50% FCS were prepared and distributed in 96-well round-bottom microplates. Then compounds were added (leading to a final vehicle concentration of max. 2% DMSO in the wells). Subsequently, five 1:5 serial dilution steps were performed. Control rows were loaded with 200 µL of either Schneider’s medium or axLtA suspension. After incubation at 32 °C for 48 h, 20 µL of MTT solution (in PBS) were added to each well (1 mM final concentration) and incubated for additional 4 h. Then plates were centrifuged at 400× g for 5 min (Hettich Rotina 420, Tuttlingen, Germany), and the supernatant was discarded. DMSO (100 µL) was added to each well and incubated at 32 °C for 10 min. Then the OD at 570 nm and 630 nm was determined using a plate reader (Perkin Elmer Enspire, Rodgau, Germany).
Calculations were carried out using Microsoft Excel (Microsoft). The graphs were created using Origin 6.1 (OriginLab Corporation, Northampton, MA, USA). The half maximal inhibitory concentrations (IC50) were determined from non-linear concentration–response curves using a four-parameter logistic model and expressed as the mean ± standard deviation (SD). Statistically significant differences of p <0.05 were identified using Students t-test.
On the technique in general: Tetrazolium dyes change colour on reduction, which living cells bring about.

The subject of the next assay is LtP. The experiment in a line: O2 consumption of LtP (OxoPlates). It counts as cell-based, Leishmania tarentolae. Conditions: 140 × 10^6 LtP/mL, 40 min; for influence on LtP respiration (oxygen consumption rate): 6.25–200 µM. As for the experimental part:
Oxygen consumption rates of LtP treated with AcEPs were measured using round-bottomed OxoPlates (OP96U, Precision Sensing GmbH, Regensburg, Germany). An aliquot of BHI culture medium was transferred to an open Erlenmeyer flask and was stirred on a magnetic stirrer for 30 min at 25 °C to saturate it with air (aBHI). Another aliquot of BHI culture medium was mixed with approximately 50 mg of the reducing agent sodium dithionite in a tightly closed falcon tube to remove the dissolved oxygen (dBHI). Aliquots of 200 µL of both calibration media were distributed to 6 wells each of the first row of an OxoPlate. To prevent oxygen exchange with the environment, 70 µL of paraffin oil were layered on top of each well containing liquid. The plate was then incubated in the dark for 15 min at 25 °C for equilibration. Then the fluorescence of both calibration media was measured at a microplate reader (Perkin Elmer Enspire, Germany) in a dual kinetic mode using an excitation wavelength of 540 nm for both of the dyes, emission wavelengths of 650 nm for the indicator dye, and 590 nm for the reference dye. The ratio of both intensities (IR) was calculated for each well and averaged giving the two calibration constants k0 or k100. From the second row on, each well was filled with 50 µL of aBHI. The third row was provided with extra 50 µL of aBHI. The respective amounts of the anthracene derivatives (Ac, AQ, AcEP1117, AcEP1118, AcEP1129, AcEP1130) were added and mixed properly. A serial dilution was performed by transferring 50 µL of the mixture in five subsequent 1:2 steps. LtP (140 × 10^6 cells/mL) were suspended in aBHI and aliquots of 150 µL were transferred to each well giving a maximal final concentration of the AcEPs of 200 µM, declining with onward 1:2 dilution steps. On top of each well, 70 µL of paraffin oil was added. The fluorescence intensity of each well was determined in 5 min intervals over 40 min. Each concentration was measured in quadruplicates. The oxygen concentration was calculated using the following equation (PreSens–Precision Sensing GmbH):O2 [µM] = 100 × (k0/IR − 1) / (k0/k100 − 1) × 2.83
The slope of the change of the oxygen concentrations over time was calculated giving the oxygen consumption rate [µM/min] for each well. The value obtained for aBHI was subtracted to eliminate the influence of the medium. The rate was finally normalized to the oxygen consumption rate of the wells that did contain cells but no test compounds.

Where [2] appears, read: Leishmania tarentolae, 48 h, pH 4.5, MTT assay, endpoint at 48 h, 6 × 10^6 axLtA/mL, pH 4.5, read-out: IC50 (µM) Mean ± SD axLtA.

Data on seven compounds can be found in PMC6100073, “Activation of Anthracene Endoperoxides in Leishmania and Impairment of Mitochondrial Functions” (Molecules : A Journal of Synthetic Chemistry and Natural …, 2018).

Structures are written as SMILES. Like-named read-outs stand apart in the source and are kept apart here. A value given as a limit tells only on which side of the number the result lay.

Regarding `O=C1c2ccccc2C(=O)c2ccccc21` [AQ, anthraquinone, reference compound], the IC50 in assay [1] (setting [2]) came out at 369 ± 9.81 µM. Further, the “influence on LtP respiration (oxygen consumption rate)” value (from here on “influence on LtP respiration”) in the assay on LtP was “no considerable influence on the LtP respiration up to concentrations of 200 µM”.
On to `CC12OOC(C)(c3ccccc31)c1ccccc12` [AcEP1118, 9,10-dimethyl-9,10-dihydro-9,10-epidioxidoanthracene], for which the IC50 in assay [1] (setting [2]) is 6.43 ± 0.4 µM. Further, the “influence on LtP respiration” value in the assay on LtP is given as “no considerable influence on the LtP respiration up to concentrations of 200 µM”.
Regarding `c1ccc2cc3ccccc3cc2c1` [Ac, anthracene], the IC50 in assay [1] (Leishmania tarentolae, 48 h, pH 4.5, read-out: IC50 (µM) Mean ± SD axLtA, MTT assay, endpoint at 48 h, 6 × 10^6 axLtA/mL, pH 4.5) was greater than 400 µM. The “influence on LtP respiration” value in the assay on LtP is “no considerable influence on the LtP respiration up to concentrations of 200 µM”.
Regarding `N=C(N)c1ccc(OCCCCCOc2ccc(C(=N)N)cc2)cc1` [Pen, pentamidine, reference compound], the IC50 in assay [1] (setting [2]) is less than 1 µM; in assay [1] (MTT assay, endpoint at 48 h, 6 × 10^6 axLtA/mL, pH 4.5, read-out: IC50 (µM) Mean ± SD axLtA) it was 0.67 ± 0.31 µM.
Regarding `CC12OOC(c3ccccc31)c1ccccc12` [AcEP1129, 9-methyl-9,10-dihydro-9,10-epidioxidoanthracene], in assay [1] (setting [2]), the IC50 came to 3.29 ± 0.13 µM. Besides, in the assay on LtP, the “influence on LtP respiration” value is given as “significant decline in the oxygen consumption rate at higher concentrations”. The “concentration from which oxygen consumption is significantly decreased” value in the assay on LtP (p < 0.05 vs 0 µM) was 25 µM.
Regarding `CCc1ccc2c(c1)C1OOC2c2ccccc21` (stereo not drawn) [AcEP1130, 2-ethyl-9,10-dihydro-9,10-epidioxidoanthracene], the IC50 in assay [1] (setting [2]) was 15.3 ± 0.31 µM. For the same compound, the “influence on LtP respiration” value with LtP is “significant decline in the oxygen consumption rate at higher concentrations”.
On the same counts, the results for `c1ccc2c(c1)C1OOC2c2ccccc21` [AcEP1117, 9,10-dihydro-9,10-epidioxidoanthracene] are 56.4 ± 15 µM and “no considerable influence on the LtP respiration up to concentrations of 200 µM”.
